“Also recorded” adds a separate entry of the source.
Tests used:
IECs = test: LC-MS of deuterated L-trp (D5-Trp) metabolites in IEC lysates; assay type: cell-based; conditions: within 6 hours of exposure
Protocol: IDO1 is a rate-limiting enzyme involved in tryptophan catabolism that generates formyl-kyneurenine which can be further metabolized into a variety of AhR agonists (Higuchi and Hayaishi Arch Biochem Biophys 1967, Nguyen and Bradfield 2008, Zelante et al. 2014). […] To specifically identify these tryptophan derived products, IECs were cultured with deuterated L-trp (D5-Trp) and performed high performance liquid chromatography mass spectrometry (LC-MS) on lysates stimulated with oxazolone, TMO, frag-oz or TMC control (FIG. 5C). […] Taken together these latter studies are consistent with a model in which exposure of IECs to oxazole containing compounds leads to the activation of IDO1 and generation of tryptophan-derived metabolites that induce the AhR pathway to downregulate CD1d-restricted responses associated with the production of IL-10 (FIG. 6).

MODE-K cells [1] = test: CD1d-restricted IL-10 production in MODE-K:NKT cell hybridoma co-culture; assay type: cell-based, mouse; conditions: for compound induced inhibition of CD1d-restricted IL-10 production when AhR expression is silenced / decrease of IL-10 production when AhR was silenced: AhR siRNA; for compound induced inhibition of CD1d-restricted IL-10 production when AhR expression is silenced: IEC:iNKT cell co-cultures; for IL-10 production / decrease of IL-10 production when AhR was silenced: tryptophan-deficient conditions supplemented with kyneurenic acid; for epithelial derived IL-10: no exogenous α-GC
MODE-K cells [2] = test: Relative transcript abundance of target genes in MODE-K cells conditioned with compounds; conditions: MODE-K cells conditioned with compound, normalized to β-actin
From the text: 4-ethoxymethylene-2-phenyl-2-oxazol-5-one, (referred to as oxazolone, FIG. 1A) has been widely utilized in models of contact hypersensitivity and when applied to the mucosa has been proposed to cause colitis through its properties as a hapten (Gorbachev and Fairchild 2001). However to date there is limited evidence for hapten-specific antibody production or responses following topical oxazolone sensitization or hapten modified autologous proteins or luminal antigens identified at mucosal sites (Singleton et al. 2016, Yanaba et al. 2008, Wirtz et al. 2007). […] It was then determined whether oxazolone could affect the expression of these transcripts in the intestinal epithelium in a cell intrinsic manner by directly stimulating an immortalized intestinal epithelial cell line (IEC) derived from mouse small intestine, MODE-K, with oxazolone.
To test this, a systematic in vitro system was devised to assess transcriptional and CD1d-restricted responses in IECs in response to stimulation with dietary OxC structures, including 2,4,5-trimethyl-2,5-dihydro-1,3-oxazole (referred to as TMO, FIG. 1A) found in coffee, peanuts, meats and utilized as a food additive, which lacks the 2-phenyl ring, 5-ketone, and 4-ethoxymethylene present in oxazolone (Vitzthum et al. 1975, Stoffesima et al. 1968, Lee et al. 1981, Chang et al. 1968, Ho and Hartman 1968).

C57Bl/6 mice [3] = test: Intra-rectal administration, colonic inflammation in vivo; set-up: species or system mouse; conditions: for effect of skin pre-sensitization with the other compound (oxazolone or TMO) on rectal responses: topical sensitization followed by intra-rectal challenge
Protocol: It was tested whether a dietary sourced minimal oxazole structure was sufficient to induce intestinal inflammation in vivo. […] To confirm this, the ability of oxazolone skin pre-sensitization to affect the responses to rectal challenge with TMO and vice-versa (FIG. 9D).
Next, it was tested whether B17 microcin derivatives could induce intestinal inflammation in vivo. Therefore, adequate quantities of a minimal B17 derivative (termed frag-oz, FIG. 2D) were synthesized to perform in vivo experiments and challenged animals via intra-rectal administration. […] These studies identify an oxazole containing microbial mimic that promotes CD1d-dependent intestinal inflammation independent of its classical anti-microbial activity.
These studies reveal a novel role for epithelial derived AhR signals in promoting mucosal inflammation when exposed to OxC.

MODE-K cells [4] = test: Surface CD1d loaded with α-GC (L363 antibody staining) in MODE-K cells; assay type: cell-based, mouse; conditions: for compound induced reduction of cell surface CD1d lipid antigen loading when AhR expression is silenced: AhR siRNA; for loading of α-GC on CD1d at the cell surface (L363 staining): MODE-K cells conditioned with compound
From the text: (§1) In light of the decreased MTP expression observed in oxazolone treated IECs (FIG. 1B) and given that MTP loss alters the ability of CD1d to acquire exogenous antigens, such as α-GC, and CD1d elicited IL-10 responses by epithelial cells (Dougan et al. 2005, Dougan et al. 2007, Zeissig et al 2017, Sagiv et al. 2007, Brozovic et al. 2004, Olszak et al. 2014), it was investigated whether CD1d expression and lipid loading on oxazolone conditioned IECs.

[5] = target: T1, aryl hydrocarbon receptor (AhR) (Mus musculus, UniProt P30561); test: AhR firefly luciferase reporter in IECs; assay type: cell-based; conditions: compared to vehicle or 1,2,4-trimethylcyclopentane
T1 construct: IECs were transfected with an AhR firefly luciferase reporter; endogenous in cells; host or cells: MODE-K (mouse intestinal epithelial cell line)
T1 sequence (P30561 10-848): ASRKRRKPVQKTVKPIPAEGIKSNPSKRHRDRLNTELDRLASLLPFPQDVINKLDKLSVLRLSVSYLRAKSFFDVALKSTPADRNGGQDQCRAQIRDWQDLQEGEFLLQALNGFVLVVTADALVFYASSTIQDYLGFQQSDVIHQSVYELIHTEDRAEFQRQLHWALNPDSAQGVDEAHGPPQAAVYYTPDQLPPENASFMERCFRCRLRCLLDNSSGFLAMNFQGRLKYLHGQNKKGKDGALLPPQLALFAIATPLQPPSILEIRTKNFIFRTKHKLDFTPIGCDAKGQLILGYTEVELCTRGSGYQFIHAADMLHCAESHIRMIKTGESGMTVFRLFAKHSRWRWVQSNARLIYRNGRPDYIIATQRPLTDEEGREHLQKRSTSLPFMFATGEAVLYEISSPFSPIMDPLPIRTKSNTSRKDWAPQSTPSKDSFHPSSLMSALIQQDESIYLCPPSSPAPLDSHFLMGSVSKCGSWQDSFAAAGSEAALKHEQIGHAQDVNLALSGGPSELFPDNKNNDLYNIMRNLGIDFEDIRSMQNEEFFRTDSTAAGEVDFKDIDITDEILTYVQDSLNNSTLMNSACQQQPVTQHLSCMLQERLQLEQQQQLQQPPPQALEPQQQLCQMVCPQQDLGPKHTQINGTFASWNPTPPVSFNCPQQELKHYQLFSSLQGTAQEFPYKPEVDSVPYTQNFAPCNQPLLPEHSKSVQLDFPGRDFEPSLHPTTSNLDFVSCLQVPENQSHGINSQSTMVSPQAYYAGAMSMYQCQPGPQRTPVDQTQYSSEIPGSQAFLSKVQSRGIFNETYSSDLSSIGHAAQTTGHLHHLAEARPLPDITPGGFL

primary hepatocytes = test: IL-10 production from primary hepatocytes co-cultured with 24.7 iNKT hybridoma; conditions: response to iNKT cells in the presence of α-GC
[6] = Wambaugh et al. 2014; cited from earlier work
recombinant IDO1 = recombinant IDO1 (Homo sapiens, UniProt P14902); test: Recombinant IDO1 conversion of L-tryptophan to formyl-kyneurenine; assay type: biochemical; conditions: compared to control (TMC) or vehicle
MODE-K cells [7] = test: Surface and intracellular CD1d protein expression in MODE-K cells (flow cytometry); assay type: cell-based, mouse; conditions: IECs stimulated with compound
From the text: as §1

[8] = test system: epithelial enriched colon fractions; conditions: after intra-rectal oxazolone challenge; Olszak et al. 2014; cited from earlier work
C57Bl/6 mice [9] = conditions: germ free animals; Olszak et al. 2012; cited from earlier work
[10] = test system: bone marrow-derived dendritic cells; test: IFN-γ production in bone marrow-derived dendritic cell : 24.7 iNKT hybridoma co-culture; assay type: cell-based; conditions: bone marrow-derived dendritic cells with 24.7 iNKT hybridoma and α-GC
[11] = IECs cultured in tryptophan-deficient media
[12] = MODE-K pre-conditioned with compound, loaded with α-GC, co-culture with 24.7 iNKT hybridoma
[13] = tryptophan-deficient media supplemented with exogenous L-tryptophan
[14] = IEC enriched colonic fractions after intra-rectal administration
[15] = intra-rectal administration, wildtype
[16] = AhrΔIEC relative to Ahrfl/fl mice, intra-rectal challenge

Sequence of recombinant IDO1 (P14902 whole entry, species assumed): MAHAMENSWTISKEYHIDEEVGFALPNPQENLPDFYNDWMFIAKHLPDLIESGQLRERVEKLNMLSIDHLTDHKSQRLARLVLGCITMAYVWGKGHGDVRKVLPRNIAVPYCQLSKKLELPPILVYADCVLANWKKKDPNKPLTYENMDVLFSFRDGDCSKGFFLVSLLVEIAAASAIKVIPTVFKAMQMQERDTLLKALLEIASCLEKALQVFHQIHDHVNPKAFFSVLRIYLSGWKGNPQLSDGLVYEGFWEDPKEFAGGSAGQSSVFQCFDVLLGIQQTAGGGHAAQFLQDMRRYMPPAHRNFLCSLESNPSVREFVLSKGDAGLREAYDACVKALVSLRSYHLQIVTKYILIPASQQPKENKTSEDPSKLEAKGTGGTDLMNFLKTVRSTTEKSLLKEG

SMILES: CC1=NC(C)OC1C (stereo not shown) [TMO, 2,4,5-trimethyl-2,5-dihydro-1,3-oxazole]
- metabolite that D5-Trp was further metabolized to upon stimulation (IECs): xanthurenic acid
- compound induced inhibition of CD1d-restricted IL-10 production when AhR expression is silenced (MODE-K cells [1]): reversed
- CD1d-restricted IL-10 production (MODE-K cells [1]; [11]): no longer attenuated
- CD1d-restricted IL-10 production (MODE-K cells [1]; [12]): limited
- IL-10 production (MODE-K cells [1]): decreased IL-10 production
- decrease of IL-10 production when AhR was silenced (MODE-K cells [1]): reduced when AhR was silenced
- CD1d-restricted IL-10 production (MODE-K cells [1]; [13]): attenuation of CD1d-restricted IL-10 production
- Ido1 transcripts (MODE-K cells [2]): induced expression of these genes in vitro and in vivo
- Mttp transcripts (MODE-K cells [2]): suppressed
- Cyp1a1 transcripts in IEC in vivo (C57Bl/6 mice [3]; [14]): induction of cyp1a1
- Mttp transcripts in IEC in vivo (C57Bl/6 mice [3]; [14]): downregulation of Mttp
- Th1 and Th2 cytokines (IL-13, IFN-γ) from colon explants (C57Bl/6 mice [3]; [15]): production of Th2 and Th1 cytokines including IL-13 and IFN-γ
- colon length (C57Bl/6 mice [3]; [15]): colon shortening
- histological pathology of the colon (C57Bl/6 mice [3]; [15]): histological pathology characterized by superficial inflammation of the gut wall, neutrophil accumulation and ulceration of the epithelial layer of the colon
- weight loss (C57Bl/6 mice [3]; [15]): increased weight loss
- clinical symptoms, pathology, inflammation in CD1d-deficient animals (C57Bl/6 mice [3]; intra-rectal challenge, CD1d-deficient (KO) vs WT): no evidence of clinical symptoms or pathology
- effect of skin pre-sensitization with the other compound (oxazolone or TMO) on rectal responses (C57Bl/6 mice [3]): did not affect
- compound induced reduction of cell surface CD1d lipid antigen loading when AhR expression is silenced (MODE-K cells [4]): reversed
- loading of α-GC on CD1d at the cell surface (L363 staining) (MODE-K cells [4]): decreased cell surface staining
- AhR transcriptional activity [5]: induced robust AhR transcriptional activity
- compound induced inhibition of IL-10 production in hepatocytes from Ahr−/− mice (primary hepatocytes): resistance
- detection in human urine [6]: detected in human urine
- ability of IDO1 to convert tryptophan to formyl-kyneurenine (recombinant IDO1): enhanced

SMILES: CCO/C=C1\N=C(c2ccccc2)OC1=O [oxazolone, 4-ethoxymethylene-2-phenyl-2-oxazolin-5-one]
- metabolite that D5-Trp was further metabolized to upon stimulation (IECs): kyneurenic acid
- compound induced inhibition of CD1d-restricted IL-10 production when AhR expression is silenced (MODE-K cells [1]): reversed
- CD1d-restricted IL-10 production (MODE-K cells [1]; [11]): no longer attenuated
- CD1d-restricted IL-10 production (MODE-K cells [1]; [12]): attenuated IL-10 production; also recorded: limited
- epithelial derived IL-10 (MODE-K cells [1]; co-culture with autoreactive iNKT cell hybridoma (24.8)): suppressed
- epithelial derived IL-10 (MODE-K cells [1]; co-culture with autoreactive non-invariant dNKT cell hybridoma (14S.6)): suppressed
- IL-10 production (MODE-K cells [1]): decreased IL-10 production
- decrease of IL-10 production when AhR was silenced (MODE-K cells [1]): reduced when AhR was silenced
- CD1d-restricted IL-10 production (MODE-K cells [1]; [13]): attenuation of CD1d-restricted IL-10 production
- Ido1 transcripts (MODE-K cells [2]): induction; also recorded: induced expression of these genes in vitro and in vivo
- Mttp transcripts (MODE-K cells [2]): down-regulation
- CD1d protein expression or distribution between intracellular and cell surface pools (MODE-K cells [7]): did not display altered CD1d protein expression or distribution
- IL-10 production in colonic explants (C57Bl/6 mice [3]; AhrΔIEC compared to wildtype controls, after intra-rectal challenge): elevated IL-10 production
- host protection, disease manifestations (C57Bl/6 mice [3]; [16]): conferred host protection
- weight loss (C57Bl/6 mice [3]; [16]): diminished weight loss
- effect of skin pre-sensitization with the other compound (oxazolone or TMO) on rectal responses (C57Bl/6 mice [3]): did not affect
- compound induced reduction of cell surface CD1d lipid antigen loading when AhR expression is silenced (MODE-K cells [4]): reversed
- loading of α-GC on CD1d at the cell surface (L363 staining) (MODE-K cells [4]): decreased loading of α-GC on CD1d at the cell surface; also recorded: decreased cell surface staining
- AhR transcriptional activity [5]: induced robust AhR transcriptional activity
- Ido1 transcripts [8]: increased transcripts
- Mttp transcripts [8]: decreased transcripts
- cyp1a1 transcripts [8]: increased transcripts
- compound induced inhibition of IL-10 production in hepatocytes from Ahr−/− mice (primary hepatocytes): resistance
- inflammation in animals under GF conditions (C57Bl/6 mice [9]): induce inflammation
- ability of IDO1 to convert tryptophan to formyl-kyneurenine (recombinant IDO1): enhanced
- IFN-γ production [10]: not affected

Reference: patent US11591300B2, “Oxazole containing compounds as activators of IDO1 and AhR” (The Brigham and Women's Hospital, Inc., priority 2017, dated 2023)
